Several values for one entry are separate records, joined by “and”; a condition that tells them apart may be missing. Equal values may be shown once.
How the values were obtained:
[1] = test system: cerebellar granule neurons; assay: LK-induced death of cultured cerebellar granule neurons, viability by DAPI staining; format: cell-based, rat; settings: for neuroprotection against LK-induced neuronal death, in words: overall over 1, 5 and 25 μM; for protection at doses lower than 1 μM compared with 1 μM: 0.5, 0.25 and 0.1 μM
Method: Culturing and treatments of cerebellar granule neurons: Granule neuron cultures were obtained from dissociated cerebella of 6-7 day old Wistar rats as described previously (D'Mello et al., 1993). Cells were plated in Basal Eagle's Medium (BME) supplemented with 10% fetal calf serum (FCS), 25 mM KCl, 2 mM glutamine (Invitrogen), and 100 μg/ml gentamycin in poly-L-lysine coated 24-well dishes at a density 1×10^6 cells/well. Cytosine arabinofuranoside (10 μM) was added to the culture medium 18-22 h after plating to prevent replication of nonneuronal cells. Previous immunocytochemical analyses by our lab and other investigators have shown that these cultures have high purity containing over 95% granule neurons (Thangnipon et al., 2003; Kingsbury et al., 2005).
The neuronal cultures were maintained for 7-8 days prior to treatment. For treatment, the cells were rinsed once and then maintained in low K+ medium (serum-free BME medium; referred to as LK), or in the case of control cultures, in high K+ medium (serum-free BME medium supplemented with 20 mM KCl; referred to as HK). For treatments, the chemical compounds (dissolved in dimethylsulfoxide) were added directly to LK medium at the time of the switch from HK at concentrations of 1, 5, or 25 μM. Viability was assessed 24 hours by 4′,6′-diamidino-2-phenylindole hydrochloride (DAPI) staining (see below). Each compound was tested in duplicate (at each of the concentrations) and the experiment repeated at least 3 times.
The viability status of neuronal cultures treated with HK, LK, or LK medium supplemented with various compounds was evaluated by phase contrast microscopy and quantified by staining cell nuclei with DAPI as previously described (Yalcin et al., 2003; Morrison et al., 2006; Majzadeh et al., 2007)). Briefly, the cells were fixed in 4% paraformaldehyde for 20 min at 4° C. After washing in phosphate buffered saline, diamidino-2-phenylindole hydrochloride (DAPI; 1 μg/ml in phosphate buffered saline) was added for 15 min at room-temperature and viewed under ultraviolet light (260 nm). Cells with condensed or fragmented nuclei were scored as dead. Viability has been expressed as percent of control cultures, which were switched to HK medium). Statistical analysis was performed using an unpaired, two-tailed Student's T test, compared to mean neuronal survival of control cultures receiving LK treatment.
When cultured cerebellar granule neurons are switched from HK to LK medium about 50% of the cells underwent apoptosis within 24 h (D'Mello et al., 1993). The inventors utilized this widely used and recognized model to test a total of 20 different 1,4-benzoxazine derivatives for their ability to protect against LK-induced neuronal death. Each compound was tested at 3 different doses—1 μM, 5 μM and 25 μM and viability quantified by DAPI-staining. The highest does was included to test for possible toxicity effects of the compounds. Key results were confirmed using TUNEL staining, another reliable assay of apoptosis (FIG. 1). As shown in Table 1 and FIG. 1, the present invention identifies several compounds with significant neuroprotective effect. Two of the most protective compounds are HSB-13 and HSB-22, both with Ar=3′,5′-dibromo-4′-hydroxyphenyl (FIG. 1). […] Protection with this compound is lower than that observed with HSB-13 and HSB-22 at the two lower doses. […] To examine whether a higher level of protection could be observed at doses lower than 1 μM, the analyses of these compounds was extended to doses of 0.5, 0.25, and 0.1 μM.
When cultured cerebellar granule neurons are switched to LK medium, about 50% of the cells undergo apoptosis within 24 h. In this study, a total of 20 different 1,4-benzoxazine derivatives of the structure shown in FIG. 1 were tested for their ability to protect against LK-induced death of cerebellar granule neurons. Each compound was tested at 3 different doses —1 μM, 5 μM and 25 μM. […]

[2] = target: GSK3β (Homo sapiens, UniProt P49841); settings: stated for the reference compound, no value; cited from earlier work
GSK3β, sequence (P49841 whole entry, species assumed): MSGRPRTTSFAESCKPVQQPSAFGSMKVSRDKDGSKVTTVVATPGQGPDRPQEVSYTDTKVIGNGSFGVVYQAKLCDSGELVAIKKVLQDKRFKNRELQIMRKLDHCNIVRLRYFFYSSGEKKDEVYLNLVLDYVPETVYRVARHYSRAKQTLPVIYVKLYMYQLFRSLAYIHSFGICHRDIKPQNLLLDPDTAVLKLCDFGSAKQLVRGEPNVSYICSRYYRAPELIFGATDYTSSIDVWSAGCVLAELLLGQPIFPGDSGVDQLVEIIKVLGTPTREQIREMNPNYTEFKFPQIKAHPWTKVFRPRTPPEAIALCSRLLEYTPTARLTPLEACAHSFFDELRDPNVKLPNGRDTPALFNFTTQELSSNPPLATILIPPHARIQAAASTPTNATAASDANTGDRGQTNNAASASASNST

[3] = test system: cultured neurons; settings: Chin et al., 2004, cited from earlier work
[4] = test system: 3-NP-induced mouse model of Huntington's disease; settings: earlier work (Chin et al., 2004); cited from earlier work
[5] = Table 1, 1 μM in LK medium, 24 h, % of survival in control cultures in HK medium, LK alone 48%
[6] = Table 1, 5 μM in LK medium, 24 h, % of survival in control cultures in HK medium, LK alone 48%
[7] = Table 1, 25 μM in LK medium, 24 h, % of survival in control cultures in HK medium, LK alone 48%
[8] = Table 4, 1 μM in LK medium, % of survival in HK control cultures, LK alone 48.16±8.44%
[9] = Table 4, 5 μM in LK medium, % of survival in HK control cultures, LK alone 48.16±8.44%
[10] = Table 4, 25 μM in LK medium, % of survival in HK control cultures, LK alone 48.16±8.44%

| Structure (SMILES) | % Survival [1, 5] | % Survival [1, 6] | % Survival [1, 7] | % Survival [1, 8] | % Survival [1, 9] | % Survival [1, 10] | neuroprotection against LK-induced neuronal death, in words [1] | protection at doses lower than 1 μM compared with 1 μM [1] | inhibition of GSK3β [2] | death of cultured neurons induced by a variety of different apoptotic stimuli [3] | toxicity to cultured neurons ([3]; at higher concentrations, Johnson et al., 2005, Chen et al., 2008) | behavioral performance in mice administered with 3-nitropropionic acid [4] | striatal degeneration in mice administered with 3-nitropropionic acid [4] | % Survival ([1]; Table 4, 25 μM in LK medium, % of survival in HK control cultures, LK alone 48.16±8.44%, listed as HSB-) | protection against LK-induced neuronal death (FIG. 1) ([1]; 25 μM, 24 h, phase contrast microscopy, DAPI-staining, TUNEL-staining) |
| --- | --- | --- | --- | --- | --- | --- | --- | --- | --- | --- | --- | --- | --- | --- | --- |
| O=C1Nc2ccccc2O/C1=C\c1cc(Br)cc(Br)c1 [ASK-1] | 75.3 ± 10.56% | 68.8 ± 12.99% | 69.1 ± 7.56% | 75.3 ± 10.56% | 68.8 ± 12.99% | 69.1 ± 7.56% | lack of neuroprotection |  |  |  |  |  |  |  |  |
| S=C1Nc2ccccc2OC1=Cc1cccs1 [ASK-8] |  | 60.8 ± 2.62% | 39.3 ± 7.78% | 73.3 ± 0.79 % | 60.8 ± 2.62% | 39.3 ± 7.78% | inactive | lower |  |  |  |  |  |  |  |
| CN1C(=S)C(=Cc2ccc[nH]2)Oc2ccccc21 [ASK-9] |  | 70.2 ± 5.32% | 65.1 ± 5.63% | 84.5% and 84.5 ± 3.30 % | 70.2 ± 5.32% | 65.1 ± 5.63% |  | lower |  |  |  |  |  |  |  |
| COc1ccc(OC)c(C=C2Oc3ccccc3NC2=S)c1 [ASK-11] | 73.8 ± 2.31% | 90.7 ± 14.50 % | 74.0 ± 3.59% | 73.8 ± 2.31% | 90.7% and 90.7 ± 14.50 % | 74.0 ± 3.59% | significant level of protection |  |  |  |  |  |  |  |  |
| O=C1Nc2ccc(I)cc2C1=Cc1cc(Br)c(O)c(Br)c1 [GW5074, 5-Iodo-3-[(3′,5′-dibromo-4′-hydroxyphenyl)methylene]-2-indolinone] |  |  |  |  |  |  |  |  | inhibits GSK3β weakly | completely inhibits | display toxicity | improves behavioral performance | prevents striatal degeneration |  |  |
| CC(=O)Oc1c(Br)cc(/C=C2\Oc3ccc([N+](=O)[O-])cc3NC2=O)cc1Br [HSB-1] | 58.8 ± 10.31% |  | 63.5 ± 9.34% | 58.8 ± 10.31% |  | 63.5 ± 9.34% |  |  |  |  |  |  |  |  |  |
| CC(=O)Oc1c(Br)cc(/C=C2\Oc3ccc(Cl)cc3NC2=O)cc1Br [HSB-2] | 44.1 ± 23.42% | 62.3 ± 15.64% |  | 44.1 ± 23.42% | 62.3 ± 15.64% |  |  |  |  |  |  |  |  |  |  |
| CC(=O)Oc1c(Br)cc(/C=C2\Oc3ccc(C)cc3NC2=O)cc1Br [HSB-3] | 56.9 ± 11.54% | 59.6 ± 11.97% |  | 56.9 ± 11.54% | 59.6 ± 11.97% | 97.4 ± 12.98 % |  |  |  |  |  |  |  | ~97% |  |
| Cc1ccc2c(c1)NC(=O)/C(=C/c1ccsc1)O2 [HSB-4] |  | 60.3 ± 4.47% | 61.0 ± 3.58% | 65.0 ± 4.34% | 60.3 ± 4.47% | 61.0 ± 3.58% | inactive | lower |  |  |  |  |  |  |  |
| CC(=O)Oc1c(Br)cc(/C=C2\Oc3ccc(F)cc3NC2=O)cc1Br [HSB-5] | 65.9 ± 5.08% | 69.3 ± 9.75% |  | 65.9 ± 5.08% | 69.3 ± 9.75% | 95.6 ± 0.98 % |  |  |  |  |  |  |  |  | protective |
| COc1cc(/C=C2\Oc3ccc(I)cc3NC2=O)cc(OC)c1OC [HSB-6] | 61.9 ± 9.07% | 72.1 ± 19.33% | 59.4 ± 13.11% | 61.9 ± 9.07% | 72.1 ± 19.33% | 59.4 ± 13.11% | lack of neuroprotection |  |  |  |  |  |  |  |  |
| Cc1ccc2c(c1)NC(=O)/C(=C/c1ccccn1)O2 [HSB-7] | 59.4 ± 13.93% |  | 88.1 ± 2.44 % | 59.4 ± 13.93% | 59.8 ± 6.40% | 88.1 ± 2.44 % |  |  |  |  |  |  |  |  |  |
| CN(C)c1ccc(C=C2Oc3ccccc3NC2=O)cc1 [HSB-9] |  | 68.8 ± 13.54% | 63.3 ± 1.73% | 67.3 ± 16.43% | 68.8 ± 13.54% | 63.3 ± 1.73% |  | lower |  |  |  |  |  |  |  |
| O=C1Nc2ccccc2OC1=Cc1cccs1 [HSB-11] | 64.2 ± 12.18% | 68.8 ± 4.26% | 68.8 ± 4.49% | 64.2 ± 12.18% | 68.8 ± 4.26% | 68.8 ± 4.49% | inactive |  |  |  |  |  |  |  |  |
| O=C1Nc2ccccc2OC1=Cc1ccsc1 [HSB-12] | 76.8 ± 5.79 % | 76.2 ± 3.42 % | 81.4 ± 9.45 % | 76.8 ± 5.79 % | 76.2 ± 3.42 % | 81.4 ± 9.45 % | inactive |  |  |  |  |  |  |  |  |
| COc1cc(C=C2Oc3ccccc3NC2=O)cc(OC)c1OC [HSB-14] | 63.9 ± 2.26% | 70.0 ± 1.63% | 69.2 ± 5.30% | 63.9 ± 2.26% | 70.0 ± 1.63% | 69.2 ± 5.30% |  |  |  |  |  |  |  |  |  |
| COc1cc(/C=C2\Oc3ccc(C)cc3NC2=O)cc(OC)c1OC [HSB-15] | 60.7 ± 2.76% | 66.5 ± 9.26% | 63.9 ± 3.32% | 60.7 ± 2.76% | 66.5 ± 9.26% | 63.9 ± 3.32% |  |  |  |  |  |  |  |  |  |
| O=C1Nc2ccccc2OC1=Cc1c[nH]c2ccccc12 [HSB-20] | 52.2 ± 10.11% | 62.5 ± 3.14% | 48.3 ± 12.11% | 52.2 ± 10.11% | 62.5 ± 3.14% | 48.3 ± 12.11% |  |  |  |  |  |  |  |  |  |

Reference: patent US8680094B2, “1, 4-benzoxazine compounds and derivatives thereof as therapeutic drugs for the treatment of neurodegenerative conditions” (Board of Regents, The University of Texas System, priority 2008, dated 2014)
